Experimental findings from US9334271B2, “Purine derivatives and their use in the treatment of disease” (Novarits AG, priority 2012, dated 2016) are described below.

Assay [1] deals with cellular mTOR kinase activity (phosphorylation of Thr 389 of S6K1) in TSC1-/- MEFs. Nature of the assay: Test 2: Cellular mTOR assay (P-P70S6K T389 Surefire). It is filed as cell-based. The note with it: Mus musculus, 1 h, read-out: Test 2: T389 cellular assay IC50 (nM). How it is done:
Test 2: Cellular mTOR Assay
30 μl are added per well to a 384 well-plate using a Multidrop instrument (Thermo scientific), resulting in 4000 cells/well. The plates are incubated at 37° C./5% CO2 for 20 hours (to allow for settling and adherance to the surface).
Eight 3-fold serial dilutions of test-compounds (beginning at 1.8 mM) are prepared in 90% DMSO and compiled on 384 well master plates (Greiner). A pan-pPI3K/mTOR inhibitor (0.8 mM of 8-(6-methoxy-pyridin-3-yl)-3-methyl-1-(4-piperazin-1-yl-3-trifluoromethyl-phenyl)-1,3-dihydro-imidazo[4,5-c]quinolin-2-one in 90% DMSO) is added to the wells for the low control. 90% DMSO is added to the wells for the high controls. Compounds are provided as 250 nl shots (Hummingbird) in 384 well-polypropylene microplates (compound plates). 50 μl of growth medium is added to the compound plates (dilution 1:200) with the Multidrop. After shaking (1 min at 2000 rpm), 10 μl of the first dilution is then transferred to the cell plate with a Matrix Plate Mate 2×3 pipettor (final dilution 1:4). After 1 hour of treatment, medium is removed from the plate and 20 μl of Surefire lysis buffer is added per well with the Multidrop.
Cell lysates are frozen for 15 minutes, thawed with shaking and transferred to the experimental 384 well-Proxiplate (5 μl/well) for the P-P70S6K (T389) Surefire assay (Perkin Elmer #TGR70S50). The first mix is composed of the reaction buffer (containing the specific antibody), the activation buffer and the acceptor beads (40 vol, 10 vol and 1 vol respectively). 5 μl per well is added to the lysates with a Zephyr® SPE Workstation (Caliper Life Sciences) and incubated for 2 hours with shaking at room temperature. After this incubation time, the second mix of dilution buffer and donor beads (20 vol and 1 vol respectively) is added to the plate with the same instrument (2 μl/well). After 2 hours, the plate can be read with an EnVision® Multilabel Reader (Perkin Elmer). Since the beads are light sensitive, their transfer and incubation is executed in a dark room (greenlight).
The raw data is used to generate dose response curves for test compounds and IC50 values calculated therefrom.

Another assay deals with recombinant human mTOR (Homo sapiens (Human), UniProt P42345). Nature of the assay: Test 1: mTOR ATP-binding assay based on TR-FRET. The note with it: GST-tagged truncated human mTOR, tracer-314, TR-FRET. How it is done: Test 1: mTOR ATP-Binding Assay Based on TR-FRET for Recombinant Human mTOR
2. The final volume of the assay is 10 μL and the order of addition is as follows:
50 nL of compounds dilution;
Incubated for 60 minutes at room temperature.
TR-FRET measured in Biotek Synergy2 reader at: • Excitation 340 nm/emission 665 nm • Excitation 340 nm/emission 620 nm
The following final concentrations are used:
1 nM Europium anti-GST antibody;
The following controls are used:
3. IC50 determinations may be performed as follows:
The Emission ratio is converted to percentage of inhibition for each compound concentration. IC50 values are calculated by fitting a sigmoidal dose-response curve to a plot of assay readout over compound concentration. All fits and analysis are performed with the program XLfit4 (ID Business Solutions, Guildford, UK).

The subject of a further assay is H4 mCherry-GFP-LC3 cells. The assay is described as follows: Test 3: Autophagy assay (mCherry-GFP-LC3 reporter, high-content imaging). The note with it: Homo sapiens, 16-18 h treatment, mCherry-positive LC3 puncta/cell. It is filed as cell-based, human. An excerpt: Autophagy is a catabolic pathway that degrades bulk cytosol in lysosomal compartments enabling amino acids and fatty acids to be recycled. One of the key regulators of autophagy is the mammalian target of rapamycin (mTOR), a conserved serine/threonine kinase which suppresses the initiation of the autophagic process when nutrients, growth factors and energy are available. To quantify autophagy induction by mTOR inhibitors, we use a mCherry-GFP-LC3 reporter which is amenable to retroviral delivery into mammalian cells, stable expression and analysis by fluorescence microscopy.
The amino acid sequence of the mCherry-GFP-LC3 construct is shown below (SEQ ID NO: 1). The mCherry sequence is underlined, GFP sequence is in bold and LC3A sequence is boxed.
Described hereinafter is an imaging protocol and image recognition algorithm to visualize and measure changes in the autophagic pathway.
Quantification of Autophagy Using High-Content Imaging and Analysis
• 1. Day 0: Cell plating. Subconfluent H4 mCherry-GFP-LC3 cells are harvested by trypsinization, resuspended in growth medium, and counted (H4 cells: Human neuroglioma cell line (ATCC)). A cell suspension of 66′000 cells/mL is prepared and 30 μL are added into the wells of a 384-well plate using an electronic multichannel pipette. […] The cell plates are briefly spun down and placed at 37° C. and 5% CO2. • 2. Day 1: Compound treatment. Compound dose responses are prepared in DMSO. The dose responses are then diluted 1:50 in medium. 10 ul of the diluted compound is added to 30 ul of cells, yielding a final 1:200 dilution of the original compound and final of 0.5% DMSO. Compound-treatments are performed in triplicates. The 384-well plates are placed at 37° C. and 5% CO2. Compound treatment is performed for 16-18 h (see Note 1). • 3. Day 2: Cell fixation. Cells are fixed by adding 10 μL/well 5× concentrated Mirsky's fixative supplemented with 25 μg/mL Hoechst33342. […] The 384-well plate is briefly spun down and incubated for 1 h at room temperature. Cells are then washed using a 384-well plate washer using a protocol which aspirates the volume down to 10 μL/well before dispensing 100 μL/well 1×TBS. Aspiration and dispensing steps are repeated 4 times and a final volume of 100 μL/well is left. The plate is sealed using an adhesive PCR foil. • 4. Imaging. The bottom of the plate is cleaned with 70% ethanol and then imaged using the InCell 1000 automated epifluorescence microscope. 20× magnification is used and 4 different areas (fields) are imaged per well, this typically captures a total of around 400 cells per well. Hoechst33342 images are acquired using an excitation of 360 nm (D360_40x filter), an emission of 460 nm (HQ460_40M filter) and an exposure time of 150 ms. GFP images are acquired using an excitation of 475 nm (S475_20x filter), an emission of 535 nm (HQ535_50M filter) and an exposure time of 1 s. mCherry images are acquired using an excitation of 535 nm (HQ535_50x filter), an emission of 620 nm (HQ620_60M filter) and an exposure time of 1 s. A quadruple band pass mirror is used for all images. • 5. Image analysis. The InCell Analysis software is used to analyze the images using the Multi Target Analysis algorithm. First, nuclei are detected in the Hoechst33342 image using top-hat segmentation and a minimal nuclear area of 50 μm^2. Cells are defined using a collar of 10 μm around the nuclei. Second, puncta (organelles) are identified in the mCherry image inside the cells using multi-top-hat segmentation. Third, the mask of the mCherry puncta is transferred onto the GFP image. Fourth, the GFP fluorescence intensity inside the mCherry puncta mask is measured (reference intensity). • 6. The ‘organelles’ parameter reflects mCherry-positive puncta of the mCherry-GFP-LC3 reporter and is used to calculate ‘LC3 puncta/cell’. […]

Chain of recombinant human mTOR (P42345 1360-2549): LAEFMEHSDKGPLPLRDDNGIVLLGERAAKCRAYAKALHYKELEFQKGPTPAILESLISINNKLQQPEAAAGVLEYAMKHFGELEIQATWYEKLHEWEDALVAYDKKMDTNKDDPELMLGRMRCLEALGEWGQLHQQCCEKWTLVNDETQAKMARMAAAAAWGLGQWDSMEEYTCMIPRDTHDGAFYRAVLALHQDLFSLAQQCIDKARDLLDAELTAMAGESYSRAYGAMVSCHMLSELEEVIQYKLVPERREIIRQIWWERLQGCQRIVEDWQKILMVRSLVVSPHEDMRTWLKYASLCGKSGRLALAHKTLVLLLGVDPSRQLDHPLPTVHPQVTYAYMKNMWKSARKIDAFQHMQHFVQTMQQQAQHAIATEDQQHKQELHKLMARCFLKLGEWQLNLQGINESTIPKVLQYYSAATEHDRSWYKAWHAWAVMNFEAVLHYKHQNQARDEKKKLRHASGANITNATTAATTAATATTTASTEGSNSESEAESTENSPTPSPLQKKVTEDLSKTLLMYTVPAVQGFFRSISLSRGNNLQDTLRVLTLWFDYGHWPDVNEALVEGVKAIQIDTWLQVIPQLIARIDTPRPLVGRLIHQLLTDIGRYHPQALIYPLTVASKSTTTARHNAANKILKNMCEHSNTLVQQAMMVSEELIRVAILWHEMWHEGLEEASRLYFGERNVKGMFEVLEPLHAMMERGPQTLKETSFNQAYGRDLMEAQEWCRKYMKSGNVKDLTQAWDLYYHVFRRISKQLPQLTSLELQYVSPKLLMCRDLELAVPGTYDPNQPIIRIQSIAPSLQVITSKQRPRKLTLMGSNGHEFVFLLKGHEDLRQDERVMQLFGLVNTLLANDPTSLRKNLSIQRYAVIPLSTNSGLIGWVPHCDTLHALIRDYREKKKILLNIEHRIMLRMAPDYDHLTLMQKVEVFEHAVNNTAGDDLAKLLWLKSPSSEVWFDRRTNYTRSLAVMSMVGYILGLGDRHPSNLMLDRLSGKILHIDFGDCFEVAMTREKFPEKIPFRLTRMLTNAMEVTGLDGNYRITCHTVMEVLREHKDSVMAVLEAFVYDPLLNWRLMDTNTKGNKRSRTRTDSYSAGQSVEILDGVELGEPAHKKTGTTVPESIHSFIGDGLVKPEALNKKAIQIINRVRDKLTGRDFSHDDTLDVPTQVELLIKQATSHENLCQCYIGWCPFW

On to `CC[C@@H]1COCCN1c1nc(N2CCOC[C@H]2C)c2nc(-c3cccc4[nH]ccc34)[nH]c2n1` [Example 15, 2-((R)-3-Ethyl-morpholin-4-yl)-8-(1H-indol-4-yl)-6-((R)-3-methyl-morpholin-4-yl)-9H-purine], for which the IC50 in assay [1] worked out at 194 nM; at recombinant human mTOR, 60 nM. This compound also yielded a 50% effective concentration (EC50) in the assay on H4 mCherry-GFP-LC3 cells of 752 nM.

On to `CCC[C@@H]1COCCN1c1nc(N2CCOC[C@H]2C)c2nc(-c3cccc4[nH]ccc34)[nH]c2n1` [Example 12, 8-(1H-Indol-4-yl)-6-((R)-3-methyl-morpholin-4-yl)-2-((R)-3-propyl-morpholin-4-yl)-9H-purine], for which the values for the IC50 (in assay [1]; at recombinant human mTOR) were 534 nM and 194 nM, respectively. Further, the EC50 in the assay with H4 mCherry-GFP-LC3 cells came out at 674 nM.
